Laboratory results as given in the supplement of paper PMC10307832.

How the values were obtained:
Test in all cases: relative viability (nuclei count vs DMSO), 5 days (fraction); higher = more cells survive
[1] = compound: CCn1c(-c2nonc2N)nc2c(C#CC(C)(C)O)ncc(OC[C@H]3CCCNC3)c21 + O=C(CCCCCCC(=O)Nc1ccccc1)NO [Vorinostat] (partner 1 µM)
Summary of the method: (§1)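 Values are medians from duplicate plates. Each reflects relative viability, defined as the nuclei count of treated wells over that of vehicle wells. Lung cancer cell lines in 1536-well plates were pin-tool dosed one day after seeding with one drug alone or with a fixed anchor-drug dose plus five library-drug doses (not always all listed) in √10 steps, then fixed, stained and imaged at 4× after 5 days.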

[2] = compound: CCOC1=CC=CC=C1N=NC2=C(NN(C2=O)C3=NC(=CS3)C4=CC=CC=C4)C [BAM7] + O=C(c1cc(Cc2n[nH]c(=O)c3ccccc23)ccc1F)N1CCN(C(=O)C2CC2)CC1 [Olaparib] (partner 8 µM)
Summary of the method: as §1

[3] = compound: CCOC1=CC=CC=C1N=NC2=C(NN(C2=O)C3=NC(=CS3)C4=CC=CC=C4)C [BAM7] + Nc1nc2[nH]cc(CCc3ccc(C(=O)N[C@@H](CCC(=O)O)C(=O)O)cc3)c2c(=O)[nH]1 [Pemetrexed] (partner 0.2 µM)
Summary of the method: as §1

[4] = compound: CCn1c(-c2nonc2N)nc2c(C#CC(C)(C)O)ncc(OC[C@H]3CCCNC3)c21 + CS(=O)(=O)N1CCN(Cc2cc3nc(-c4cccc5[nH]ncc45)nc(N4CCOCC4)c3s2)CC1 [Pictilisib] (partner 1 µM)
Summary of the method: as §1

Cell Line	relative viability ([1]; first compound 0.01 µM)	relative viability ([1]; first compound 0.03162 µM)	relative viability ([1]; first compound 0.1 µM)	relative viability ([1]; first compound 0.3162 µM)	relative viability ([1]; first compound 1 µM)	relative viability ([2]; first compound 0.5 µM)	relative viability ([2]; first compound 5 µM)	relative viability ([2]; first compound 15.81 µM)	relative viability ([2]; first compound 50 µM)	relative viability ([3]; first compound 0.5 µM)	relative viability ([3]; first compound 5 µM)	relative viability ([3]; first compound 15.81 µM)	relative viability ([3]; first compound 50 µM)	relative viability ([4]; first compound 0.01 µM)	relative viability ([4]; first compound 0.03162 µM)	relative viability ([4]; first compound 0.1 µM)	relative viability ([4]; first compound 0.3162 µM)	relative viability ([4]; first compound 1 µM)
NCI-H1734	0.773	0.857	0.744	0.7	0.74	0.57	0.664	0.599	0.609	0.437	0.415	0.382	0.411	0.456	0.466	0.403	0.423	0.461
NCI-H1755	0.725	0.66	0.637	0.762	0.841	0.858	0.939	0.858	0.899	0.401	0.417	0.423	0.408	0.426	0.445	0.41	0.408	0.382
NCI-H1793	0.652	0.692	–	0.605	0.704	0.926	0.882	0.791	0.95	0.931	0.728	0.809	1.13	0.282	0.322	0.378	0.346	0.317
NCI-H1915	0.57	0.526	0.474	0.513	0.5	0.269	0.262	0.223	0.259	0.425	0.505	0.524	0.46	0.977	0.941	0.957	0.871	0.979
NCI-H1944	0.645	0.477	0.568	0.514	0.585	0.345	0.391	0.326	0.436	0.581	0.541	0.512	0.512	0.357	0.276	0.284	0.35	0.334
NCI-H1975	0.705	0.72	0.717	0.631	0.684	0.498	0.617	0.393	0.602	0.292	0.276	0.269	0.288	0.335	0.255	0.314	0.235	0.261
NCI-H1993	1.01	0.805	0.825	0.776	0.543	0.955	1.08	0.888	0.98	0.62	0.529	0.5	0.581	1.03	0.735	0.887	0.866	0.887
NCI-H2009	0.726	0.708	0.788	0.706	0.821	0.716	0.727	0.662	0.663	1.03	1.06	1.03	1.01	0.89	0.855	0.745	0.798	0.752
NCI-H2023	0.615	0.642	0.58	0.394	0.488	0.475	0.45	0.363	0.387	0.229	0.248	0.174	0.286	0.214	0.269	0.207	0.196	0.236
NCI-H2085	0.822	0.785	0.785	0.712	0.796	0.83	0.804	0.785	0.786	1.02	0.675	0.844	0.992	0.436	0.437	0.373	0.404	0.462
NCI-H2087	0.971	–	0.706	0.517	0.96	0.683	0.685	0.559	0.456	0.671	0.627	0.653	0.646	0.823	0.843	0.805	0.891	0.894
NCI-H2126	0.754	0.743	0.791	0.741	0.792	0.892	0.877	0.905	0.92	0.746	0.672	0.574	0.641	0.548	0.496	0.494	0.442	0.449
NCI-H2170	0.841	0.764	0.836	0.699	0.85	0.497	0.447	0.439	0.476	0.252	0.281	0.251	0.269	0.301	0.296	0.342	0.312	0.281
NCI-H2228	0.539	0.828	0.409	0.7	0.497	0.802	0.932	0.547	0.585	0.355	0.341	0.316	0.351	0.295	0.386	0.347	0.216	0.294
